For assay [1], the target named is T1, M1-site (pirenzepine sensitive site) of muscarinic receptors (Rattus norvegicus, UniProt P08482).
T1 construct: Fresh cortex (0.1-1 g) from male Wistar rats (150-200 g) is homogenized; from tissue; host or cells: cerebral cortex of male Wistar rats
T1 sequence (P08482 1-460): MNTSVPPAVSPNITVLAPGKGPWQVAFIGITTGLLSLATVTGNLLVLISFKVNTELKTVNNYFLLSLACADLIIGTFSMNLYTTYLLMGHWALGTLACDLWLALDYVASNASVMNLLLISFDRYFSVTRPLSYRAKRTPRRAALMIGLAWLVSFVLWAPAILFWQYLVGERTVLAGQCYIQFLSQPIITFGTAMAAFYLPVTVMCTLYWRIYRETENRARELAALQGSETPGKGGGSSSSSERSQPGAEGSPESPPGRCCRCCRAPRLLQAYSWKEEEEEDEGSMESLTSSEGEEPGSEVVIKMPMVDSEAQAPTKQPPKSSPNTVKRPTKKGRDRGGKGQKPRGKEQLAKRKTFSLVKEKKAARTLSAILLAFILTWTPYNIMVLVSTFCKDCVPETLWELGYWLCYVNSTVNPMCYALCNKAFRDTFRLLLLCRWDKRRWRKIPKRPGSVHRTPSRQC
Description: inhibition of ^3 H-PRZ (pirenzepine, [N-methyl-^3 H]) binding to rat cerebral cortex membranes. Also on record: species or system male Wistar rats. The source says:
Furthermore the pharmacological properties of the compounds of the invention can also be illustrated by determining their capability to inhibit ^3 H-PRZ (pirenzepine, [N-methyl-^3 H]) binding to rat cerebral cortex membranes. Pirenzepine binds selectively to subtype of muscarinic receptors. Historically the type is named the M1 -site, whereas pirenzepine sensitive site would be more appropriate. Although selective for M1 -sites pirenzepine also interact with M2 -sites.
All preparations are performed at 0°-4° C. unless otherwise indicated. Fresh cortex (0.1-1 g) from male Wistar rats (150-200 g) is homogenized for 5-10 s. in 10 ml 20 mM Hepes pH: 7.4, with an Ultra-Turraxhomogenizer. The homogenizer is rinzed with 2×10 ml of buffer and the combined suspension centrifuged for 15 min at 40,000×g. The pellet is washed three times with buffer. In each step the pellet is homogenized as before in 3×10 ml of buffer and centrifuged for 10 min at 40,000×g.
The final pellet is homogenized in 20 mM Hepes pH: 7.4 (100 ml per g of original tissue) and used for binding assay. Aliquots of 0.5 ml is added 20 μl of test solution and 25 μl of ^3 H-Pirenzepine (1.0 nM, final conc.), mixed and incubated for 60 min at 20° C. Non-specificbinding is determined in triplicate using atropine (1 μg/ml, final conc.) as the test substance. After incubation samples are added 5 ml of ice-cold buffer and poured directly onto Whatman GF/C glass fiber filters inder suction and immediately washed 2 times with 5 ml of ice-cold buffer. The amount of radioactivity on the filters are determined by conventional liquid scintillation counting. Specific binding is total binding minus non-specific binding.
Test substances are dissolved in 10 ml water, at a concentration of 0.22 mg/ml. 25-75% inhibition of specific binding must be obtained before calculation of IC50.
The test value will be given as IC50 (the concentration (nM) of the test substance which inhibits the specific binding of ^3 H-PRZ by 50%).
(§1) IC50 =(applied test substance concentration)×(Cx /Co -Cx)nM
(§2) where Co is specific binding in control assays and Cx is the specific binding in the test assay. (The calculations assume normal mass-action kinetics).

Assay [2] has as its target muscarinic acetylcholine receptors. Put plainly: inhibition of specific binding of ^3 H-Oxotremorine-M (^3 H-Oxo) to rat cortex homogenate. Also on record: species or system male Wistar rats. Particulars: 1.0 nM radioligand, 30 min at 25° C., pH 7.4.
Source text: The pharmacological properties of the compounds of the invention can be illustrated by determining their capability to inhibit the specific binding of ^3 H-Oxotremorine-M (^3 H-Oxo). Birdsdall N. J. M., Hulme E. C., and Burgen A. S. V. (1980). "The Character of Muscarinic Receptors in Different Regions of the Rat Brain". Proc. Roy. Soc. London (Series B) 207,1.
^3 H-Oxo labels muscarinic receptor in the CNS (with a preference for agonist domains of the receptors). Three different sites are labelled by ^3 H-Oxo. […] Using the present experimental conditions only the high and medium affinity sites are determined.
The inhibitory effects of compounds on ^3 H-Oxo binding reflects the affinity for muscarinic acetylcholine receptors.
All preparations are performed at 0°-4° C. unless otherwise indicated. Fresh cortex (0.1-1 g) from male Wistar rats (150-250 g) is homogenized for 5-10 s in 10 ml 20 mM Hepes pH: 7.4, with an Ultra-Turrax homogenizer. The homogenizer is rinsed with 10 ml of buffer and the combined suspension centrifuged for 15 min. at 40,000×g. The pellet is washed three times with buffer. In each step the pellet is homogenized as before in 2×10 ml of buffer and centrifuged for 10 min. at 40,000×g.
The final pellet is homogenized in 20 mM Hepes pH: 7.4 (100 ml per g of original tissue) and used for binding assay. Aliquots of 0.5 ml is added 25 ul of test solution and 25 ul of ^3 H-Oxotremorine (1.0 nM, final concentration) mixed and incubated for 30 min. at 25° C. Non-specific binding is determined in triplicate using arecoline (1 ug/ml, final concentration) as the test substance. After incubation samples are added 5 ml of ice-cold buffer and poured directly onto Whatman GF/C glass fiber filters under suction and immediately washed 2 times with 5 ml of ice-cold buffer. The amount of radioactivity on the filters are determined by conventional liquid scintillation counting. Specific binding is total binding minus non specific binding.
Test substances are dissolved in 10 ml water (if necessary heated on a steam-bath for less than 5 min.) at a concentration of 2.2 mg/ml. 25-75% inhibition of specific binding must be obtained before calculation of IC50.
The test value will be given as IC50 (the concentration (nM) of the test substance which inhibits the specific binding of ^3 H-Oxo by 50%).
as §1, §2

In assay [3] the target is muscarinic receptor in the CNS. To be noted: read-out: affinity of site labelled by ^3 H-Oxo, cited from earlier work.

Where a name gives a salt, the structure may show the parent alone. Read-outs that look alike come from different tables or passages of the source.

`CN1CCC2=C(C1)c1nsnc1SC2` [Compound 5, oxalate] gave an IC50 in assay [1] of 80 nM. For the same compound, in assay [2], the “^3 H-Oxo-M IC50” value was 0.014 µg/mL.
As for `CN1C2CCC1c1c(sc3nsnc13)C2.O=C(O)C(=O)O` (stereo not shown) [Compound 1, 6,8-Ethano-7-methyl-5,6,7,8-tetrahydro-1,2,5-thiadiazolo[3',4':4,5]thieno[3,2-c]pyridine oxalate], the IC50 in assay [1] was > 1000 nM. The “^3 H-Oxo-M IC50” value in assay [2] came to 0.27 µg/mL.
On to `C1Cc2sc3nsnc3c2CN1.O=C(O)C(=O)O` [Compound 2, 5,6,7,8-Tetrahydro-1,2,5-thiadiazolo[3',4':4,5]thieno[3,2-c]pyridine oxalate], for which the IC50 in assay [1] (rat cortex, 1.0 nM ^3 H-Pirenzepine, 60 min at 20° C., pH 7.4, read-out: ^3 H-Pz IC50) was determined as 284 nM. Moreover, the “^3 H-Oxo-M IC50” value in assay [2] was determined as 0.0064 µg/mL.
Consider `O=C(O)C(=O)O.c1cc2nsnc2c2c1CCNC2` [Compound 4, 6,7,8,9-Tetrahydro[1,2,5]thiadiazolo[3,4-h]isoquinoline oxalate], for which the half-inhibitory concentration (IC50) in assay [1] was determined as 255 nM. In assay [2], the “^3 H-Oxo-M IC50” value worked out at 0.014 µg/mL.
Turning to `C[N+](C)(C)CC#CCN1CCCC1=O` [^3 H-Oxo, ^3 H-Oxotremorine-M], the Kd is 1.8 nM in assay [3] (first of three sites (high affinity)); 20 nM in assay [3] (second of three sites (medium affinity)); 3000 nM in assay [3] (third of three sites, not determined under the present experimental conditions).
In the case of `C1CC2CN(C1)Cc1c2sc2nsnc12.O=C(O)C(=O)O` (stereo not shown) [Compound 3, 5,9-Methano-5,6,7,8,9,10-hexahydro-1,2,5-thiadiazolo[3',4':4,5]thieno[3,2-c]azocine oxalate], the 50% inhibitory concentration (IC50) in assay [1] is 26 nM. Moreover, in assay [2], the “^3 H-Oxo-M IC50” value was 0.0022 µg/mL.

As usually defined, the IC50 is the concentration needed to halve the response being measured.

Source of the values: patent publication US5741788A, “Heterocyclic compounds and their preparation and use” (Novo Nordisk A/S, priority 1994, dated 1998).
